Data taken from a melting point compilation (Tetko et al.; mined from patent text by program, amines drawn as free bases though some values may be those of a salt).

Row | melting point [°C] | Compound
1 | 137 to 139 | O=C(Nc1ccc(C2(O)CCCN(C(=O)OCc3ccccc3)C2)c(F)c1)OCc1ccccc1 (stereo not given)
2 | 239 to 240 | CCOC(=O)C(=CNn1cnnc1)C(=O)c1cc(F)c(F)cc1F
3 | 121 to 122 | COc1ncccc1Cc1cc2cccc(-c3cccc(C(=O)NCCO)c3)c2s1
4 | 233 to 235 | CNC(=O)[C@H]1S[C@@H](n2cnc3c(N)nc(Cl)nc32)[C@H](O)[C@@H]1O
5 | 126 to 127 | Cn1c(=O)ccc2cc(COc3cc(F)cc(C4CCOCC4)c3)ccc21
6 | 231 to 233 | COc1ccc(CNC(=NC#N)Nc2ccc(C3=NNC(=O)CC3C)cc2)cc1 (stereo not given)
7 | 73 | CCOc1ccc(O)c(F)c1F
8 | 207 to 209 | O=C(O)c1cc(-c2ccccc2)cc2c(-c3ccccc3)c([N+](=O)[O-])oc12
9 | 79 | CCCCOc1ccc(-c2ncc(C(=O)OCC)c(Cl)n2)cc1
10 | 118 to 120 | Oc1cccc(NCCc2ccccn2)c1
11 | 125 | CCC(=O)Nc1ccnn1-c1c(Cl)cc(C(F)(F)F)cc1Cl
12 | 234 to 235 | CC1CC(=O)NN=C1c1ccc(-n2cnc3c2CCCC3)nc1 (stereo not given)
13 | 200 to 210 | CCCCn1c(=O)[nH]c2cccnc2c1=O
14 | 135 to 137 | Cc1noc(NS(=O)(=O)C23CSc4cccc(c42)OCO3)c1C (stereo not given)
15 | 72 to 73 | COCCNC(=O)c1cc(F)cc(-c2cccc3cc(Cc4cc(F)cc(Cl)c4)sc23)c1
16 | > 300 | Nc1cc(OC2CCNCC2)c(F)c2c1c(=O)c(C(=O)O)cn2C1CC1
17 | 216 to 218 | O=C(O)c1ccccc1Nc1ccnn1-c1ccccn1
18 | 176 to 179 | CN(C)CCOc1ccc2[nH]c(C(=O)N3CC(CCl)c4c3cc(OCc3ccccc3)c3ncccc43)cc2c1 (stereo not given)
19 | 153 to 156 | CN1c2ccc(Cl)cc2C(c2ccccc2)=Nc2cccnc21
20 | 173 to 174 | O=C(Nc1ccc(O)cc1)c1ccc(OC2CCCCO2)cc1 (stereo not given)
21 | 178 | COc1ccc(N2CCN(n3cnn(C)c3=O)CC2)cc1
22 | 148 to 151 | Cc1cccc(-c2n[nH]cc2-c2ccc(F)c(-c3ccc(OCCO)cn3)c2)n1
23 | 40 to 55 | C=C(CO)C(C(=O)OC(c1ccccc1)c1ccccc1)N1C(=O)C2N=C(Cc3ccccc3)OC21 (stereo not given)
24 | 101 to 103 | CC(C)(C)c1cc(C(=O)c2nccs2)cc2c1OCC2(C)C

Row | melting point [°C] | Compound
25 | 90 to 92 | Cc1ccc(S(=O)(=O)N[C@H](CO)CCO)cc1
26 | 228 to 230 | CCn1nc2c(N)nc3ccccc3c2c1CC1(F)CCN(C(C)=O)CC1
27 | 141 to 145 | N=C(N)Nc1nc(CSCCNc2ncccc2C(=O)O)cs1
28 | 174 to 175 | Cc1ccnc(Sc2nc(-c3ccc(Cl)cc3)c(CCC(=O)O)o2)n1
29 | 216 to 217 | O=c1[nH]c2sccc2c(=O)n1CCN1CCN(c2ccccc2Cl)CC1
30 | 143 to 145 | Cc1cc(NC(=O)CN2CCN(c3ccccc3C#N)CC2)ccc1Br
31 | 104 to 110 | CC1(C)c2ccc(C(O)CN3CCN(c4n[nH]c5ccccc45)CC3)cc2C(C)(C)C1O (stereo not given)
32 | 190 to 192 | N#Cc1nc(F)c(F)c(N)c1Cl
33 | 159 to 161 | COc1ccccc1C=C1N=C(c2ccccc2)OC1=O
34 | 83 to 84 | C[C@H]1c2ccccc2N(C(=O)CCl)[C@H]1C (relative stereo)
35 | 135 to 137 | CNc1ccccc1CS(=O)c1nccn1-c1ccccn1 (stereo not given)
36 | 73 | CCOC(=O)/C=C(C)/C=C/C=C(\C)C1=Cc2cc(C(C)(C)C)cc(C)c2OC1
37 | 134 to 136 | COC(=O)c1cc(=O)c(OCc2ccccc2)co1
38 | 188 to 189 | Cn1cnc2c3ncc(Cl)cc3ccc21
39 | 98 to 100 | COc1ccc2c(c1)C(=O)N(C)CC(CCCl)O2 (stereo not given)
40 | 203 to 204 | CC(=O)OCC(=O)C1(O)CCC2C3CCC4=CC(=O)C=CC4(C)C3(F)C(O[Si](C)(C)C)CC21C (stereo not given)
41 | 301 to 303 | O=C1c2ccc(=O)[nH]c2CC2CCCCC12 (stereo not given)
42 | 173 to 174 | O=C(Cn1nc(-c2ccccc2O)nc1-c1ccccc1O)NCCOCCO
43 | 200 | Cn1cncc1C(O)(c1ccc(Cl)cc1)c1ccc2c(c1)c(-c1nc(-c3ccccc3)cs1)cc(=O)n2C (stereo not given)
44 | 140 to 142 | CC(=O)SCCC(=O)N1[C@@H](c2ccccc2O)SC[C@H]1C(=O)N(c1ccccc1)[C@@H](C)C(=O)OC(C)(C)C
45 | 249 to 251 | O=C1NCCN1c1ccc(S(=O)(=O)Nc2ccc(F)cc2)cc1
46 | 107 to 110 | COc1ccc(Sc2sc(S(N)(=O)=O)cc2C)cc1
47 | 211 to 212 | CCc1c(C(=O)O)c(CC(=O)O)n(C)c1C(=O)c1ccc(Cl)cc1
48 | 108 to 111 | CCOC(=O)C(=Cc1cccc([N+](=O)[O-])c1)C(=O)CCl

Row | melting point [°C] | Compound
49 | 144 to 145 | CN(C)C=CC(=O)c1cccc(OCC(O)CN2CCN(c3ccc(Cl)cc3)CC2)c1 (stereo not given)
50 | 184 | CCc1cc(C#N)cc(C(=O)Nc2ccc(F)cn2)n1
51 | 45 to 46 | N#CCCCN(Cc1ccccc1)Cc1ccccc1
52 | 69 | O=[N+]([O-])c1ccc(Cl)cc1Cc1ccccn1
53 | 167 | O=P1(O)OCc2ccccc21
54 | 90 to 95 | COc1ccc(S(=O)(=O)C2(C(=O)NO)CCN(Cc3ccccc3)CC2)cc1
55 | 165 to 168 | CCCn1nc(C2CC2)c(C(=O)OCC)c1Cc1ccc(-c2ccccc2S(=O)(=O)NC(C)(C)C)cc1
56 | 106 | CC(=O)N1c2ccc(-c3ccc(CN4CCCCC4)cc3)cc2C(Nc2ccc(F)cc2)CC1C (stereo not given)
57 | 139 to 140 | CCOC(=O)c1c(CN2CCCC2)nc2cc(OC)c(OC)cc2c1-c1ccc(OC)c(OC)c1
58 | 68 to 70 | COc1cccc2c1CCC(C=O)C2=O (stereo not given)
59 | 242 to 247 | Cc1cc(C)c(C)c(COc2cccc(-c3coc(C(=O)NNC(=O)c4ccc(O)c(C#N)c4)c3-c3ccccc3)c2)c1C
60 | 137 to 138 | CCN(CC)CCNC(=O)N1CCCC(S(=O)(=O)c2ccc(F)cc2)C1 (stereo not given)
61 | 110 to 115 | CN(C(c1ccccc1)c1ccccc1)S(=O)(=O)CC(N)=O
62 | 136 | Cc1c(Cl)ncc2ncc(-c3ccccc3)cc12
63 | 57 to 59 | COc1ccccc1-c1cnn2ccc(N3CCN(C(=O)OC(C)C)CC3)nc12
64 | 101 to 102 | CCOC(=O)c1ccccc1-n1c(=O)c2ccccc2n(CCCCBr)c1=O
65 | 170 to 173 | N#Cc1c([N+](=O)[O-])ccc(N2CCCC2)c1Cl
66 | 150 to 151 | Cc1oc(-c2cc(C(F)(F)F)cc(C(F)(F)F)c2)nc1COc1cccc(CN(O)C(N)=O)c1
67 | 221 | Nc1nnc(-c2ccc(Cl)cc2)s1
68 | 248 to 250 | O=c1ccc(S(=O)(=O)c2c[nH]c3ccccc23)n[nH]1
69 | > 300 | NNC(=O)c1cnc2c(=O)[nH]c3ccccc3n2c1=O
70 | 131 to 132 | O=C1c2ccccc2CN1CSc1ccncc1
71 | 77 to 84 | COC(=O)CC1CC(CCc2c(-c3ccc(F)cc3)c(-c3ccccc3)c(C(=O)Nc3ccc(C(=O)OC)cn3)n2C(C)C)OC(C)(C)O1 (stereo not given)
72 | 128 to 130 | COc1cc(C=C(C#N)C(N)=O)cc(OC)c1OC

Row | melting point [°C] | Compound
73 | 198 to 199 | Cn1cnc(COc2nn3c(-c4ccccc4)nnc3c(Cl)c2N2CCCC2)n1
74 | 107 to 108 | CCNC(=O)c1ccc(COC(=O)c2ccc(OC)c(C(C)(C)C)c2)cc1
75 | 248 to 249 | COC1=C(C(=O)c2ccc(C)cc2)C(c2ccc(C(C)C)cc2)N(c2ccc(C)nn2)C1=O (stereo not given)
76 | 193 to 194 | CSC1C(O)C(CO)OC1n1ccc(NC(=O)c2ccccc2)nc1=O (stereo not given)
77 | 94 to 96 | O=C(CBr)c1ccc(OCc2ccccc2)c(OCc2ccccc2)c1Cl
78 | 59.1 | COC(=O)[C@@H](NC(=O)Oc1ccccc1)C(C)C
79 | 114 to 116 | COc1cccc(C(O)C2CCN(CCc3ccc(F)cc3)CC2)c1OC (stereo not given)
80 | 118 to 120 | O=C(Cl)c1ccccc1NC(=O)c1ccccc1-c1ccccc1
81 | 174 to 175 | COc1ccc(NC(=O)NC2CCN(Cc3ccccc3)CC2)c(CCc2cc(C(C)(C)C)c(O)c(C(C)(C)C)c2)c1
82 | 44 to 45 | Cc1cc(C)c2c(-c3ccc(C(C)C)cc3)coc2c1
83 | 258 to 260 | N#Cc1ccc(CN2c3ccc(Cl)cc3C=C(C(=O)O)C2C(F)(F)F)cc1 (stereo not given)
84 | 194 to 196 | Cc1cc(Cn2c(-c3ccccc3)nc(Cl)c2CC#N)ccc1O
85 | 120 | CNc1ccccc1CS(=O)c1nc2ncccc2[nH]1 (stereo not given)
86 | 143 to 144 | CC(C)(C)c1cc(C(=O)c2c[nH]c(SC#N)c2SC#N)cc(C(C)(C)C)c1O
87 | 188 to 190 | CNc1cc(OC)c(C(=O)NCC23CCCN(CCC2)C3)cc1Cl
88 | 220 to 222 | C=C(C)C(=O)Nc1ccc(C(=O)O)c(O)c1
89 | 196 to 197 | CC(C)(C)CC(=O)Nc1ccc2oc3c(c2c1)CCC3
90 | 243 to 245 | CC1(C)C(=O)Nc2cc3[nH]c(-c4c[nH]c5ccccc45)nc3cc21
91 | 109 to 115 | COc1cc2c(cc1Nc1ncc(Cl)c(N[C@@H]3CCCC[C@H]3NS(C)(=O)=O)n1)CCNC(=O)C2
92 | 206 to 208 | CN(C)C(=O)N(C)Cc1cccc2c1C(=O)N(C1CCC(=O)NC1=O)C2=O (stereo not given)
93 | 91 to 92 | CCOC(=O)c1ccc(NCCCCCCCCCCCCCC[Si](C)(C)C)cc1
94 | 101 to 104 | CN(CCO)C(=O)Cn1nc(-c2ccccc2O)nc1-c1ccccc1O
95 | 87 to 89 | CCCCCCCCCCCCCCCCCCNC(=O)OCC(CNS(=O)(=O)CCCI)NC(=O)NC (stereo not given)
96 | 165 to 167 | c1ccc(COc2cccc3nc[nH]c23)cc1

Row | Compound | melting point [°C]
97 | O=P1(Oc2ccccc2)CCCC(CI)O1 (stereo not given) | 128
98 | CCCCC1(N(C)C)CCC(c2[nH]c3ccccc3c2Cc2ccccc2)CC1 (stereo not given) | 72 to 78
99 | Cc1ccc2c3c(ccc2n1)OCC(CN1CC=C(c2c[nH]c4ccccc24)CC1)O3 (stereo not given) | 210
100 | CC12CC(N3CCC(O)CC3)C(O)CC1CCC1C2CCC2(C)C(O)C(N3CCC(O)CC3)CC12 (stereo not given) | 248 to 250
